Our source for the IC50 values is patent US11161852B1 (Halia Therapeutics, Inc., priority 2020, dated 2021).

Where only a bound is given, the exact number is not on record here.

Chain of full-length recombinant human NEK7 (Q8TDX7 whole entry): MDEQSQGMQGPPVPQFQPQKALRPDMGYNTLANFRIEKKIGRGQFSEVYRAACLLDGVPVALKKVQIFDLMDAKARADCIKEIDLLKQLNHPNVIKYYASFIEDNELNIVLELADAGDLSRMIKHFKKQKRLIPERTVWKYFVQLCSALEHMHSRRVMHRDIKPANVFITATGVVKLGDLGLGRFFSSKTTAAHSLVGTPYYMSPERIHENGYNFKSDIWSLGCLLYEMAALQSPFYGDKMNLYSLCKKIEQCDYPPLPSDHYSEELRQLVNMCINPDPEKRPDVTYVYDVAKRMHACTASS

In the test the target is full-length recombinant human NEK7 (Homo sapiens (Human), UniProt Q8TDX7). Put plainly: NEK7 Enzymatic Assay ([33P]-ATP, casein substrate). In kind it is biochemical. As to the method:
Casein substrate (from bovine milk, hydrolyzed and partially dephosphorylated mixture of α, β and a caseins, obtained from Sigma Aldrich, catalogue #C4765, diluted in distilled water to a final concentration of 1 mg/mL) and full-length recombinant human NEK7 (expressed by baculovirus in Sf9 insect cells using a N-terminal GST tag, obtained from SignalChem, catalogue #N09-10G, 0.1 μg/μL) were mixed in assay buffer (20 mM Hepes pH 7.5, 10 mM MgCl2, 1 mM EGTA, 0.02% Brij35, 0.02 mg/ml BSA, 0.1 mM Na3VO4, 2 mM DTT, 1% DMSO). Compounds of interest (serial 3-fold dilution in DMSO from 10 μM to 0.5 nM) or vehicle (1% DMSO) were dispensed into the kinase reaction mixture by Acoustic technology (Echo550; nanoliter range). After incubation at room temperature for 20 minutes, the kinase reaction was initiated by addition of [^33P]-ATP (specific activity […]) and the mixture was incubated at room temperature for 2 hours. The reaction was then stopped by spotting the reaction mixture on strips of phosphocellulose P81 paper. Following washing, the radioactivity of the P81 paper was measured and kinase activity data were expressed as the percent remaining kinase activity in test samples compared to vehicle reactions. IC50 values and curve fits were obtained using Prism (GraphPad Software).
The IC50 is the point on the concentration scale where inhibition reaches its midpoint. For the compound `CN1CCC(n2cc(-c3ccc(NC(=O)Nc4cc(C5(C(F)(F)F)CC5)no4)c(F)c3)c3c(N)ncnc32)C1` (stereo not shown) [Example 56, 1-(4-(4-amino-7-(1-methylpyrrolidin-3-yl)-7H-pyrrolo[2,3-d]pyrimidin-5-yl)-2-fluorophenyl)-3-(3-(1-(trifluoromethyl)cyclopropyl)isoxazol-5-yl)urea], the concentration for half-maximal inhibition (IC50) was 301 to 500 nM.
As for `Nc1ncnc2c1c(-c1ccc(NC(=O)Nc3cc(C4(C(F)(F)F)CC4)no3)c(Cl)c1)cn2C1CC1` [Example 54, 1-(4-(4-amino-7-cyclopropyl-7H-pyrrolo[2,3-d]pyrimidin-5-yl)-2-chlorophenyl)-3-(3-(1-(trifluoromethyl)cyclopropyl)isoxazol-5-yl)urea], the figure is greater than 1500 nM.
Turning to `CC(C)(c1cc(NC(=O)Nc2ccc(-c3cn(C4CC4)c4ncnc(N)c34)cc2F)on1)C(F)(F)F` [Example 12, 1-(4-(4-amino-7-cyclopropyl-7H-pyrrolo[2,3-d]pyrimidin-5-yl)-2-fluorophenyl)-3-(3-(1,1,1-trifluoro-2-methylpropan-2-yl)isoxazol-5-yl)urea], the IC50 lay in the range of 151 to 300 nM.
Regarding `CC(C)(CO)c1cc(NC(=O)Nc2ccc(-c3cn(C4CC4)c4ncnc(N)c34)cc2F)on1` [Example 29, 1-(4-(4-amino-7-cyclopropyl-7H-pyrrolo[2,3-d]pyrimidin-5-yl)-2-fluorophenyl)-3-(3-(1-hydroxy-2-methylpropan-2-yl)isoxazol-5-yl)urea], the IC50 was in the range of 301 to 500 nM.
As for `Nc1ncnc2c1c(-c1ccc(NC(=O)Nc3cc(C4(C(F)(F)F)CC4)no3)c(F)c1)cn2C1CCC1` [Example 53, 1-(4-(4-amino-7-cyclobutyl-7H-pyrrolo[2,3-d]pyrimidin-5-yl)-2-fluorophenyl)-3-(3-(1-(trifluoromethyl)cyclopropyl)isoxazol-5-yl)urea], the figure is 301 to 500 nM; as for `CC(C)(C)n1cnc(NC(=O)Nc2ccc(-c3cn(C4CC4)c4ncnc(N)c34)cc2F)n1` [Example 22, 1-(4-(4-amino-7-cyclopropyl-7H-pyrrolo[2,3-d]pyrimidin-5-yl)-2-fluorophenyl)-3-(1-(tert-butyl)-1H-1,2,4-triazol-3-yl)urea], greater than 1500 nM; as for `CC(C)(C)c1cc(NC(=O)Nc2ccc(-c3cn(C4CC4)c4ncnc(N)c34)cc2F)sn1` [Example 20, 1-(4-(4-amino-7-cyclopropyl-7H-pyrrolo[2,3-d]pyrimidin-5-yl)-2-fluorophenyl)-3-(3-(tert-butyl)isothiazol-5-yl)urea], greater than 1500 nM.
As for `Nc1ncnc2c1c(-c1cc(F)c(NC(=O)Nc3cc(C4(C(F)(F)F)CC4)no3)c(F)c1)cn2C1CC1` [Example 41, 1-(4-(4-amino-7-cyclopropyl-7H-pyrrolo[2,3-d]pyrimidin-5-yl)-2,6-difluorophenyl)-3-(3-(1-(trifluoromethyl)cyclopropyl)isoxazol-5-yl)urea], the figure is greater than 1500 nM; as for `Nc1ncnc2c1c(-c1ccc(NC(=O)Nc3cc(C4(C(F)(F)F)CC4)on3)c(F)c1)cn2C1CCC1` [Example 58, 1-(4-(4-amino-7-cyclobutyl-7H-pyrrolo[2,3-d]pyrimidin-5-yl)-2-fluorophenyl)-3-(5-(1-(trifluoromethyl)cyclopropyl)isoxazol-3-yl)urea], 501 to 1500 nM.
With “1-(4-(4-amino-7-(2-hydroxy-2-methylpropyl)-7H-pyrrolo[2,3-d]pyrimidin-5-yl)-2-fluorophenyl)-3-(5-(1-(trifluoromethyl)cyclopropyl)isoxazol-3-yl)urea [Example 47]”, the IC50 was less than 150 nM.
On to `Nc1ncnc2c1c(-c1ccc(NC(=O)Nc3cc(C4(C(F)(F)F)CC4)no3)c(F)c1)cn2-c1ccncc1` [Example 25], for which the IC50 is 501 to 1500 nM.
As for `Nc1ncnc2c1c(-c1ccc(NC(=O)Nc3cc(C4CC4)on3)c(F)c1)cn2C1CC1` [Example 6], the figure is 301 to 500 nM; as for `Nc1ncnc2c1c(-c1ccc(NC(=O)Nc3cc(C4(C(F)(F)F)CC4)no3)c(F)c1)cn2-c1cccnc1` [Example 24, 1-(4-(4-amino-7-(pyridin-3-yl)-7H-pyrrolo[2,3-d]pyrimidin-5-yl)-2-fluorophenyl)-3-(3-(1-(trifluoromethyl)cyclopropyl)isoxazol-5-yl)urea], 501 to 1500 nM; as for `CCc1cc(NC(=O)Nc2ccc(-c3cn(C4CC4)c4ncnc(N)c34)cc2F)on1` [Example 33, 1-(4-(4-amino-7-cyclopropyl-7H-pyrrolo[2,3-d]pyrimidin-5-yl)-2-fluorophenyl)-3-(3-ethylisoxazol-5-yl)urea], less than 150 nM.
As for `Nc1ncnc2c1c(-c1ccc(NC(=O)Nc3cc(C4(C(F)(F)F)CCC4)no3)c(F)c1)cn2C1CC1` [Example 45, 1-(4-(4-amino-7-cyclopropyl-7H-pyrrolo[2,3-d]pyrimidin-5-yl)-2-fluorophenyl)-3-(3-(1-(trifluoromethyl)cyclobutyl)isoxazol-5-yl)urea], the figure is 151 to 300 nM; as for `CC(C)(O)Cn1cc(-c2ccc(NC(=O)Nc3cc(C4(C(F)(F)F)CC4)no3)nc2)c2c(N)ncnc21` [Example 46, 1-(5-(4-amino-7-(2-hydroxy-2-methylpropyl)-7H-pyrrolo[2,3-d]pyrimidin-5-yl)pyridin-2-yl)-3-(3-(1-(trifluoromethyl)cyclopropyl)isoxazol-5-yl)urea], less than 150 nM; as for `CC(C)(C)c1nnc(NC(=O)Nc2ccc(-c3cn(C4CC4)c4ncnc(N)c34)cc2F)o1` [Example 23, 1-(4-(4-amino-7-cyclopropyl-7H-pyrrolo[2,3-d]pyrimidin-5-yl)-2-fluorophenyl)-3-(5-(tert-butyl)-1,3,4-oxadiazol-2-yl)urea], 301 to 500 nM.
As for `Nc1ncnc2c1c(-c1cnc(NC(=O)Nc3cc(C4(C(F)(F)F)CC4)no3)c(F)c1)cn2C1CC1` [Example 44], the figure is 501 to 1500 nM.
For `CCC(C)c1cc(NC(=O)Nc2ccc(-c3cn(C4CC4)c4ncnc(N)c34)cc2F)on1` (stereo not shown) [Example 30, 1-(4-(4-amino-7-cyclopropyl-7H-pyrrolo[2,3-d]pyrimidin-5-yl)-2-fluorophenyl)-3-(3-(sec-butyl)isoxazol-5-yl)urea], the IC50 fell in the range of 151 to 300 nM.
As for `Nc1ncnc2c1c(-c1c(F)cc(NC(=O)Nc3cc(C4(C(F)(F)F)CC4)no3)cc1F)cn2C1CC1` [Example 43, 1-(4-(4-amino-7-cyclopropyl-7H-pyrrolo[2,3-d]pyrimidin-5-yl)-3,5-difluorophenyl)-3-(3-(1-(trifluoromethyl)cyclopropyl)isoxazol-5-yl)urea], the figure is greater than 1500 nM; as for `Nc1ncnc2c1c(-c1ccc(NC(=O)Nc3cc(C4(C(F)(F)F)CC4)no3)c(CO)c1)cn2C1CC1` [Example 49, 1-(4-(4-amino-7-cyclopropyl-7H-pyrrolo[2,3-d]pyrimidin-5-yl)-2-(hydroxymethyl)phenyl)-3-(3-(1-(trifluoromethyl)cyclopropyl)isoxazol-5-yl)urea], greater than 1500 nM.
As for `Nc1ncnc2c1c(-c1ccc(NC(=O)Nc3cc(C4(C(F)(F)F)CC4)no3)cc1F)cn2C1CC1` [Example 11, 1-(4-(4-amino-7-cyclopropyl-7H-pyrrolo[2,3-d]pyrimidin-5-yl)-3-fluorophenyl)-3-(3-(1-(trifluoromethyl)cyclopropyl)isoxazol-5-yl)urea], the figure is 301 to 500 nM; as for `N#Cc1cc(-c2cn(C3CC3)c3ncnc(N)c23)ccc1NC(=O)Nc1cc(C2(C(F)(F)F)CC2)no1` [Example 50, 1-(4-(4-amino-7-cyclopropyl-7H-pyrrolo[2,3-d]pyrimidin-5-yl)-2-cyanophenyl)-3-(3-(1-(trifluoromethyl)cyclopropyl)isoxazol-5-yl)urea], greater than 1500 nM.
As for `CC(C)(C)c1cc(NC(=O)Nc2ccc(-c3cn(C4CC4)c4ncnc(N)c34)cc2)on1` [Example 13, 1-(4-(4-amino-7-cyclopropyl-7H-pyrrolo[2,3-d]pyrimidin-5-yl)phenyl)-3-(3-(tert-butyl)isoxazol-5-yl)urea], the figure is 301 to 500 nM; as for `Cc1cc(-c2cn(C3CC3)c3ncnc(N)c23)ncc1NC(=O)Nc1cc(C2(C(F)(F)F)CC2)no1` [Example 40, 1-(6-(4-amino-7-cyclopropyl-7H-pyrrolo[2,3-d]pyrimidin-5-yl)-4-methylpyridin-3-yl)-3-(3-(1-(trifluoromethyl)cyclopropyl)isoxazol-5-yl)urea], greater than 1500 nM.
In the case of `CC(C)c1cc(NC(=O)Nc2ccc(-c3cn(C4CC4)c4ncnc(N)c34)cc2F)on1` [Example 32, 1-(4-(4-amino-7-cyclopropyl-7H-pyrrolo[2,3-d]pyrimidin-5-yl)-2-fluorophenyl)-3-(3-isopropylisoxazol-5-yl)urea], the IC50 is less than 150 nM.
As for `COCCn1cc(-c2ccc(NC(=O)Nc3cc(C4(C(F)(F)F)CC4)no3)c(F)c2)c2c(N)ncnc21` [Example 51, 1-(4-(4-amino-7-(2-methoxyethyl)-7H-pyrrolo[2,3-d]pyrimidin-5-yl)-2-fluorophenyl)-3-(3-(1-(trifluoromethyl)cyclopropyl)isoxazol-5-yl)urea], the figure is less than 150 nM; as for `Nc1ncnc2c1c(-c1ccc(NC(=O)Nc3cc(C4(C(F)(F)F)CCC4)on3)c(F)c1)cn2C1CC1` [Example 57, 1-(4-(4-amino-7-cyclopropyl-7H-pyrrolo[2,3-d]pyrimidin-5-yl)-2-fluorophenyl)-3-(5-(1-(trifluoromethyl)cyclobutyl)isoxazol-3-yl)urea], less than 150 nM.
